The target of the test is T1, human TRPV4 (Homo sapiens, UniProt Q9HBA0).
T1 construct: expressed in transfected cells; host or cells: HEK-293-MSR-II cells transduced with 1% BacMam virus
In words: Ligand-gated assay (Fluo4 calcium, FLIPR; inhibition of agonist-induced activation). It counts as cell-based. The conditions noted are these: HEK-293-MSR-II cells transduced with BacMam human TRPV4; agonist at EC80. The procedure: TRP channel activation/opening results in an influx of divalent and monovalent cations including calcium. The resulting changes in intracellular calcium were monitored using a calcium selective fluorescent dye Fluo4 (MDS Analytical Technologies). Dye loaded cells were initially exposed to test compound to verify a lack of agonist activity. Cells were subsequently activated by addition of an agonist and inhibition of the agonist-induced activation was recorded. Human embryonic kidney 293 cells stably expressing the macrophage scavenger receptor class II (HEK-293-MSR-II) and transduced with 1% BacMam (J. P. Condreay, S. M. Witherspoon, W. C. Clay and T. A. Kost, Proc Natl Acad Sci 96 (1999), pp. 127-132) virus expressing the human TRPV4 gene were plated at 15000 cells/well in a volume of 50 μL in a 384 well poly-D lysine coated plate. Cells were incubated for 24 hours at 37 degrees and 5% CO2. Media was then aspirated using a Tecan Plate-washer and replaced with 20 μL of dye loading buffer: HBSS, 500 uM Brilliant Black (MDS Analytical Technologies), 2 uM Fluo-4. Dye loaded plates were then incubated in the dark at room temperature for 1-1.5 hours. 10 μL of test compound diluted in HBSS (HBSS with 1.5 mM Calcium Chloride, 1.5 mM Magnesium Chloride and 10 mM HEPES. pH 7.4), +0.01% Chaps was added to the plate, incubated for 10 min at room temperature in the dark and then 10 μL of agonist was added at a final concentration equal to the agonist EC80. Calcium release was measured using the FLIPRtetra (MDS Analytical Technologies) or FLIPR384 (MDS Analytical Technologies).
IC50 between 0.1-10 nM (+++), >10-50 nM (++), >50-500 nM (+).

Each structure is given as a SMILES string.

T1 sequence (Q9HBA0 whole entry): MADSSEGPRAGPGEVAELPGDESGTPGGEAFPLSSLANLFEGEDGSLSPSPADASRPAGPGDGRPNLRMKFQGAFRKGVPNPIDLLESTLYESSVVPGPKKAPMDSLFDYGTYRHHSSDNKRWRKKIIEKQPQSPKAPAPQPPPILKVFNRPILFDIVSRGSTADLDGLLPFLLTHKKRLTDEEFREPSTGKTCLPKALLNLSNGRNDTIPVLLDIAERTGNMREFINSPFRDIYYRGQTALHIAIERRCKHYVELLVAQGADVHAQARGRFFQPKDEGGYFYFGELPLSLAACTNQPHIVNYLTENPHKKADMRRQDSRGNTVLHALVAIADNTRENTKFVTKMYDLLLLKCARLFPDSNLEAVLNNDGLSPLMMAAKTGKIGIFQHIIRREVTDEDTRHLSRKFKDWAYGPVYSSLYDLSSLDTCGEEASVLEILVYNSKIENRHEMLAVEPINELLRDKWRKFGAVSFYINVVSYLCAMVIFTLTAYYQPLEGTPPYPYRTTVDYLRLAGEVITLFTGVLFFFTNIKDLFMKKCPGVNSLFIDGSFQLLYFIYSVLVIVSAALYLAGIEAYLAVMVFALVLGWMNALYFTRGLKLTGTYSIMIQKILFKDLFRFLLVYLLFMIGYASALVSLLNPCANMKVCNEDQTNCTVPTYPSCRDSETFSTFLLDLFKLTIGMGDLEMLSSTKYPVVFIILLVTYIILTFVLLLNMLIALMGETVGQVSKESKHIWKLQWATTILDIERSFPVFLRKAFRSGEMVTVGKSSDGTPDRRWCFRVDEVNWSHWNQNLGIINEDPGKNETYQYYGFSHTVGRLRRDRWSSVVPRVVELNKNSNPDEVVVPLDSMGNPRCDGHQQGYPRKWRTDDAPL

The IC50 is the concentration at which inhibition is half-maximal. On to `CC(C)Cc1cc(N2C[C@@]3(CCC[C@](C)(Cn4cnc5ccc(C#N)cc54)C3)OC2=O)on1` [Example 31, 1-({(5S,7S)-7-methyl-3-[3-(2-methylpropyl)-5-isoxazolyl]-2-oxo-1-oxa-3-azaspiro[4.5]dec-7-yl}methyl)-1H-benzimidazole-6-carbonitrile], for which the IC50 lay within 0.1 to 10 nM.

With `CCc1cc(N2C[C@@]3(CCC[C@](C)(Cn4cnc5ccc(C#N)cc54)C3)OC2=O)on1` [Example 33, 1-{[(5S,7S)-3-(3-ethyl-5-isoxazolyl)-7-methyl-2-oxo-1-oxa-3-azaspiro[4.5]dec-7-yl]methyl}-1H-benzimidazole-6-carbonitrile], the IC50 lay within 10 to 50 nM.

On to `C[C@]1(Cn2cnc3ccc(C#N)cc32)CCC[C@@]2(CN(c3cc(C4CC4)no3)C(=O)O2)C1` [Example 34, 1-{[(5S,7S)-3-(3-cyclopropyl-5-isoxazolyl)-7-methyl-2-oxo-1-oxa-3-azaspiro[4.5]dec-7-yl]methyl}-1H-benzimidazole-6-carbonitrile], for which the concentration for half-maximal inhibition (IC50) lay in the range of 0.1 to 10 nM.

With `C[C@]1(Cn2cnc3ccc(C#N)cc32)CCC[C@@]2(CN(c3cc(-c4ccccc4)no3)C(=O)O2)C1` [Example 35, 1-{[(5S,7S)-7-methyl-2-oxo-3-(3-phenyl-5-isoxazolyl)-1-oxa-3-azaspiro[4.5]dec-7-yl]methyl}-1H-benzimidazole-6-carbonitrile], the IC50 is 10 to 50 nM.

Consider `Cn1nc(C(C)(C)C)cc1N1C[C@@]2(CCC[C@](C)(Cn3cnc4ccc(C#N)cc43)C2)OC1=O` [Example 36, 1-({(5S,7S)-3-[3-(1,1-dimethylethyl)-1-methyl-1H-pyrazol-5-yl]-7-methyl-2-oxo-1-oxa-3-azaspiro[4.5]dec-7-yl}methyl)-1H-benzimidazole-6-carbonitrile], for which the IC50 is 50 to 500 nM.

With `C[C@]1(Cn2cnc3ccc(C#N)cc32)CCC[C@@]2(CN(c3cc(C(F)(F)F)no3)C(=O)O2)C1` [Example 37, 1-({(5S,7S)-7-methyl-2-oxo-3-[3-(trifluoromethyl)-5-isoxazolyl]-1-oxa-3-azaspiro[4.5]dec-7-yl}methyl)-1H-benzimidazole-6-carbonitrile], the IC50 fell in the range of 10 to 50 nM.

Consider `C[C@]1(Cn2cnc3ccc(C#N)cc32)CCC[C@@]2(CN(c3cc(C4(C#N)CC4)no3)C(=O)O2)C1` [Example 38, 1-({(5S,7S)-3-[3-(1-cyanocyclopropyl)-5-isoxazolyl]-7-methyl-2-oxo-1-oxa-3-azaspiro[4.5]dec-7-yl}methyl)-1H-benzimidazole-6-carbonitrile], for which the IC50 is 10 to 50 nM.

Turning to `CC(C)(F)c1cc(N2C[C@@]3(CCC[C@](C)(Cn4cnc5ccc(C#N)cc54)C3)OC2=O)on1` [Example 39, 1-(((5S,7S)-3-(3-(2-fluoropropan-2-yl)isoxazol-5-yl)-7-methyl-2-oxo-1-oxa-3-azaspiro[4.5]decan-7-yl)methyl)-1H-benzo[d]imidazole-6-carbonitrile], the IC50 lay in the range of 0.1 to 10 nM.

For `C[C@]1(Cn2cnc3ccc(C#N)cc32)CCC[C@@]2(CN(c3cc(C4CCC4)no3)C(=O)O2)C1` [Example 40, 1-(((5S,7S)-3-(3-cyclobutylisoxazol-5-yl)-7-methyl-2-oxo-1-oxa-3-azaspiro[4.5]decan-7-yl)methyl)-1H-benzo[d]imidazole-6-carbonitrile], the IC50 was 10 to 50 nM.

Turning to `Cc1c(C(C)(C)C)noc1N1C[C@@]2(CCC[C@](C)(Cn3cnc4ccc(C#N)cc43)C2)OC1=O` [Example 41, 1-(((5S,7S)-3-(3-(tert-butyl)-4-methylisoxazol-5-yl)-7-methyl-2-oxo-1-oxa-3-azaspiro[4.5]decan-7-yl)methyl)-1H-benzo[d]imidazole-6-carbonitrile], the IC50 was 0.1 to 10 nM.

As to `CC(C)(C)c1coc(N2C[C@@]3(CCC[C@](C)(Cn4cnc5ccc(C#N)cc54)C3)OC2=O)n1` [Example 42, 1-(((5S,7S)-3-(4-(tert-butyl)oxazol-2-yl)-7-methyl-2-oxo-1-oxa-3-azaspiro[4.5]decan-7-yl)methyl)-1H-benzo[d]imidazole-6-carbonitrile], the IC50 lay within 10 to 50 nM.

On to `CC(C)(C)n1cc(N2C[C@@]3(CCC[C@](C)(Cn4cnc5ccc(C#N)cc54)C3)OC2=O)cn1` [Example 43, 1-(((5S,7S)-3-(1-(tert-butyl)-1H-pyrazol-4-yl)-7-methyl-2-oxo-1-oxa-3-azaspiro[4.5]decan-7-yl)methyl)-1H-benzo[d]imidazole-6-carbonitrile], for which the IC50 lay in the range of 10 to 50 nM.

For the compound `CC(C)(C)c1noc(N2C[C@@]3(CCC[C@](C)(Cn4cnc5ccc(C#N)cc54)C3)OC2=O)c1F` [Example 44, 1-(((5S,7S)-3-(3-(tert-butyl)-4-fluoroisoxazol-5-yl)-7-methyl-2-oxo-1-oxa-3-azaspiro[4.5]decan-7-yl)methyl)-1H-benzo[d]imidazole-6-carbonitrile], the IC50 was 0.1 to 10 nM.

As to `CC(F)(F)c1cc(N2C[C@@]3(CCC[C@](C)(Cn4cnc5ccc(C#N)cc54)C3)OC2=O)on1` [Example 45, 1-(((5S,7S)-3-(3-(1,1-difluoroethyl)isoxazol-5-yl)-7-methyl-2-oxo-1-oxa-3-azaspiro[4.5]decan-7-yl)methyl)-1H-benzo[d]imidazole-6-carbonitrile], the IC50 lay in the range of 0.1 to 10 nM.

As for `Cc1c(C(C)(C)C)noc1N1C[C@@]2(CCC[C@H](Cn3cnc4ccc(C#N)cc43)C2)OC1=O` [Example 46, 1-(((5S,7S)-3-(3-(tert-butyl)-4-methylisoxazol-5-yl)-2-oxo-1-oxa-3-azaspiro[4.5]decan-7-yl)methyl)-1H-benzo[d]imidazole-6-carbonitrile], the IC50 was in the range of 0.1 to 10 nM.

As to `CC(C)(C)c1noc(N2C[C@@]3(CCC[C@H](Cn4cnc5ccc(C#N)cc54)C3)OC2=O)c1F` [Example 47, 1-(((5S,7S)-3-(3-(tert-butyl)-4-fluoroisoxazol-5-yl)-2-oxo-1-oxa-3-azaspiro[4.5]decan-7-yl)methyl)-1H-benzo[d]imidazole-6-carbonitrile], the half-maximal inhibitory concentration (IC50) fell in the range of 0.1 to 10 nM.

Take `CC(C)(C)c1ccc(N2C[C@@]3(CCC[C@](C)(Cn4cnc5ccc(C#N)cc54)C3)OC2=O)nn1` [Example 48, 1-(((5S,7S)-3-(6-(tert-butyl)pyridazin-3-yl)-7-methyl-2-oxo-1-oxa-3-azaspiro[4.5]decan-7-yl)methyl)-1H-benzo[d]imidazole-6-carbonitrile]: the IC50 is 0.1 to 10 nM.

As to `CC(C)(C)c1cnc(N2C[C@@]3(CCC[C@](C)(Cn4cnc5ccc(C#N)cc54)C3)OC2=O)nc1` [Example 49, 1-(((5S,7S)-3-(5-(tert-butyl)pyrimidin-2-yl)-7-methyl-2-oxo-1-oxa-3-azaspiro[4.5]decan-7-yl)methyl)-1H-benzo[d]imidazole-6-carbonitrile], the IC50 is 0.1 to 10 nM.

`CC(C)(C)n1ncc(N2C[C@@]3(CCC[C@](C)(Cn4cnc5ccc(C#N)cc54)C3)OC2=O)n1` [Example 50, 1-(((5S,7S)-3-(2-(tert-butyl)-2H-1,2,3-triazol-4-yl)-7-methyl-2-oxo-1-oxa-3-azaspiro[4.5]decan-7-yl)methyl)-1H-benzo[d]imidazole-6-carbonitrile]: the IC50 lay in the range of 0.1 to 10 nM.

In the case of `Cn1ccc(-c2cc(N3C[C@@]4(CCC[C@](C)(Cn5cnc6ccc(C#N)cc65)C4)OC3=O)on2)n1` [Example 51, 1-(((5S,7S)-7-methyl-3-(3-(1-methyl-1H-pyrazol-3-yl)isoxazol-5-yl)-2-oxo-1-oxa-3-azaspiro[4.5]decan-7-yl)methyl)-1H-benzo[d]imidazole-6-carbonitrile], the IC50 lay within 10 to 50 nM.

(Values after patent US9187464B2, “TRPV4 antagonists” (GlaxoSmithKline Intellectual Property (No. 2) Limited, priority 2011, dated 2015).)
